In experiment [1] the target is Human CB1R (Cannabinoid receptor 1) (Homo sapiens, UniProt P21554). In words: CB-1 in vitro cAMP (HTRF) assay. The following applies: HEK cells, cAMP HTRF, 250 nM forskolin; mean where tested more than once; read-out: CB1 HEK_cAMP EC50. Type of experiment: cell-based. Summed up: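 Intracellular cAMP from HTRF ratio (d2-cAMP vs Eu-cryptate anti-cAMP), converted to nM via per-plate standards, in stable human CB1R HEK-293 cells.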
A general note: TR-FRET usually uses a lanthanide donor and a delayed reading to cut background.

In experiment [2] the target is Human CB2R (Cannabinoid receptor 2) (Homo sapiens, UniProt P34972). In words: CB-2 in vitro cAMP (HTRF) assay. Type of experiment: cell-based. The following applies: HEK cells, cAMP HTRF, 250 nM forskolin; mean where tested more than once; read-out: CB2 HEK_cAMP EC50. In a few lines: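 Competitive HTRF read-out (d2-labelled cAMP vs cryptate antibody) quantifies cAMP in stably transfected HEK-293 cells, seeded the day before at 4E5 cells/mL. Stimulation buffer: HBSS, 5 mM HEPES, 0.1% BSA, 0.5 mM IBMX; forskolin prepared at 1.5 μM in buffer; compounds serially diluted 1/3 in DMSO.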
Chain of Human CB2R (Cannabinoid receptor 2) (P34972 whole entry): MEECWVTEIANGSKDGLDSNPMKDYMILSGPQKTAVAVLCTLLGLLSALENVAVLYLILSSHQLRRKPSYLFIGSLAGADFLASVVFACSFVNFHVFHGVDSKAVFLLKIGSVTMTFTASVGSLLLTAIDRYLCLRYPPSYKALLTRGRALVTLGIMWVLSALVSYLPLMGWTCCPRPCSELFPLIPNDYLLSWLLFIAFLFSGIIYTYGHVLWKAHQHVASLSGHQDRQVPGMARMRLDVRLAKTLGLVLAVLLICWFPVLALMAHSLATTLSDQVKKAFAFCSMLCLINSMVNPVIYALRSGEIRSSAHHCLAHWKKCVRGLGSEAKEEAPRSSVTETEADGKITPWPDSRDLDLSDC

Chain of Human CB1R (Cannabinoid receptor 1) (P21554 whole entry): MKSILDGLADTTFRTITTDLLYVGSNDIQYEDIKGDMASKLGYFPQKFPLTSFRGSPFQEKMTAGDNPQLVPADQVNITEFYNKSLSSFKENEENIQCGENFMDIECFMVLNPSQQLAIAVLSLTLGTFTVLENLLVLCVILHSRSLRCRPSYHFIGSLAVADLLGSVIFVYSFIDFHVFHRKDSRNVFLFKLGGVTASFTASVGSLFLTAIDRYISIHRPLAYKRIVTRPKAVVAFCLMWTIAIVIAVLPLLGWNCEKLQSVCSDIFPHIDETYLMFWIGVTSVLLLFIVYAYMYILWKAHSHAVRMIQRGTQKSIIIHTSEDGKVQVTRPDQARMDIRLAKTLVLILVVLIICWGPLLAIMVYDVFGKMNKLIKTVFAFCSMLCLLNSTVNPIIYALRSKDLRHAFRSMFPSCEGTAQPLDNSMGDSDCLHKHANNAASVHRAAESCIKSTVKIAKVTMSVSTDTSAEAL

For the molecule `NC(=O)COc1ccc(N2CCC(n3c(C4CC4)nc4ccc(C(c5ccc(Cl)cc5)c5ccc(Cl)cc5)cc43)CC2)cc1` [Example 142], the EC50 (as a rule, the concentration that produces a half-maximal response) in experiment [1] amounted to 21.5 nM; in experiment [2], 5250 nM.

As for `O=C(O)COCC(c1ccc(Cl)cc1)(c1ccc(Cl)cc1)c1ccc2nc(C3CC3)n(C3CCN(S(=O)(=O)C(F)(F)F)CC3)c2c1` [Example 143], the EC50 in experiment [1] is 3920 nM; in experiment [2], over 10000 nM.

For `CCOC(=O)COc1cccc(Cn2c(C3CC3)nc3ccc(C(c4ccc(Cl)cc4)c4ccc(Cl)cc4)cc32)c1` [Example 144], the results for the EC50 in experiment [1] and in experiment [2] were 15.2 nM and 4700 nM, respectively.

As to `COc1cccc(Cn2c(C3CC3)nc3ccc(C(c4ccc(Cl)cc4)c4ccc(Cl)cc4)cc32)c1` [Example 146], the EC50 in experiment [1] is 33.7 nM; in experiment [2], over 10000 nM.

Take `O=C(O)c1ccc(CN2CCC(n3c(C4CC4)nc4ccc(C(c5ccc(Cl)cc5)c5ccc(Cl)cc5)cc43)CC2)cc1` [Example 147]: the half-maximal effective concentration (EC50) in experiment [1] was determined as 10.2 nM; in experiment [2] it was 7560 nM.

With `O=C(O)c1ccc(C(O)(c2ccc(Cl)cc2)c2ccc3nc(C4CC4)n(C4CCN(S(=O)(=O)C(F)(F)F)CC4)c3c2)cc1` (stereo not drawn) [Example 150], the EC50 in experiment [1] is 972 nM; in experiment [2], over 10000 nM.

With `Nc1ccc(S(=O)(=O)N2CCC(n3c(C4CC4)nc4ccc(C(c5ccc(Cl)cc5)c5ccc(Cl)cc5)cc43)CC2)cc1` [Example 151], the half-maximal effective concentration (EC50) in experiment [1] is 66.5 nM; in experiment [2], over 10000 nM.

Regarding `O=C(O)COc1ccc(N2CCC(n3c(C4CC4)nc4ccc(C(c5ccc(Cl)cc5)c5ccc(Cl)cc5)cc43)CC2)cc1` [Example 152], the figures for the EC50 in experiment [1] and in experiment [2] were 1590 nM and 6400 nM, respectively.

Regarding `NC(=O)COc1cccc(N2CCC(n3c(C4CC4)nc4ccc(C(c5ccc(Cl)cc5)c5ccc(Cl)cc5)cc43)CC2)c1` [Example 153], the values for the EC50 in experiment [1] and in experiment [2] were 8.7 nM and 3610 nM, respectively.

Turning to `O=C(O)COc1cccc(N2CCC(n3c(C4CC4)nc4ccc(C(c5ccc(Cl)cc5)c5ccc(Cl)cc5)cc43)CC2)c1` [Example 154], the EC50 in experiment [1] worked out at 311 nM; in experiment [2], 8000 nM.

`O=C(O)Cc1ccc(N2CCC(n3c(C4CC4)nc4ccc(C(c5ccc(Cl)cc5)c5ccc(Cl)cc5)cc43)CC2)cc1` [Example 157]: the EC50 in experiment [1] was determined as 190 nM; in experiment [2], 3380 nM.

`O=C(O)Cc1cccc(N2CCC(n3c(C4CC4)nc4ccc(C(c5ccc(Cl)cc5)c5ccc(Cl)cc5)cc43)CC2)c1` [Example 158]: the EC50 in experiment [1] came out at 67.9 nM; in experiment [2] it was 5800 nM.

Turning to `NC(=O)c1ccc(N2CCC(n3c(C4CC4)nc4ccc(C(c5ccc(Cl)cc5)c5ccc(Cl)cc5)cc43)CC2)cc1` [Example 161], the EC50 in experiment [1] stood at 8 nM; in experiment [2] it was 2110 nM.

With `NC(=O)c1cccc(N2CCC(n3c(C4CC4)nc4ccc(C(c5ccc(Cl)cc5)c5ccc(Cl)cc5)cc43)CC2)c1` [Example 162], the EC50 in experiment [1] was 6.2 nM; in experiment [2] it was 4490 nM.

With `O=C(O)c1cccc(N2CCC(n3c(C4CC4)nc4ccc(C(c5ccc(Cl)cc5)c5ccc(Cl)cc5)cc43)CC2)c1` [Example 163], the EC50 in experiment [1] came to 91.6 nM; in experiment [2], 7780 nM.

Consider `O=C(O)COc1ccc(-n2c(C3CC3)nc3ccc(C(c4ccc(Cl)cc4)c4ccc(Cl)cc4)cc32)cc1` [Example 165], for which the EC50 in experiment [1] and in experiment [2] was over 10000 nM each time.

Consider `O=C(O)c1ccc(S(=O)(=O)N2CCC(n3c(C4CC4)nc4ccc(C(c5ccc(Cl)cc5)c5ccc(Cl)cc5)cc43)CC2)cc1C(F)(F)F` [Example 166], for which the EC50 in experiment [1] came out at 3.7 nM; in experiment [2] it was 5020 nM.

For the molecule `Cc1ccc(S(=O)(=O)N2CCC(n3c(C4CC4)nc4ccc(C(c5ccc(Cl)cc5)c5ccc(Cl)cc5)cc43)CC2)cc1C(N)=O` [Example 168], the EC50 in experiment [1] was 91.2 nM; in experiment [2], over 10000 nM.

Consider `NC(=O)COc1ccc(-n2c(C3CC3)nc3ccc(C(c4ccc(Cl)cc4)c4ccc(Cl)cc4)cc32)cc1` [Example 169], for which the concentration for a half-maximal effect (EC50) stood at 45 nM in experiment [1] and 7900 nM in experiment [2].

Take `CCOC(=O)COc1ccc(-n2c(C3CC3)nc3ccc(C(c4ccc(Cl)cc4)c4ccc(Cl)cc4)cc32)cc1` [Example 170]: the results for the EC50 in experiment [1] and in experiment [2] were 4.4 nM and 314 nM, respectively.

As to `Oc1ccc(-n2c(C3CC3)nc3ccc(C(c4ccc(Cl)cc4)c4ccc(Cl)cc4)cc32)cc1` [Example 171], the EC50 is 167 nM in experiment [1] and over 10000 nM in experiment [2].

Turning to `NC(=O)COc1cccc(-n2c(C3CC3)nc3ccc(C(c4ccc(Cl)cc4)c4ccc(Cl)cc4)cc32)c1` [Example 172], the EC50 in experiment [1] is 81.2 nM; in experiment [2], over 10000 nM.

Take `CCOC(=O)COc1cccc(-n2c(C3CC3)nc3ccc(C(c4ccc(Cl)cc4)c4ccc(Cl)cc4)cc32)c1` [Example 173]: the values for the EC50 in experiment [1] and in experiment [2] were 55.9 nM and 9200 nM, respectively.

Take `COC(=O)c1cccc(-n2c(C3CC3)nc3ccc(C(c4ccc(Cl)cc4)c4ccc(Cl)cc4)cc32)c1` [Example 174]: the figures for the EC50 in experiment [1] and in experiment [2] were 6550 nM and over 10000 nM, respectively.

With `CCOC(=O)COc1ccc(Cn2c(C3CC3)nc3ccc(C(c4ccc(Cl)cc4)c4ccc(Cl)cc4)cc32)cc1` [Example 175], the results for the EC50 in experiment [1] and in experiment [2] were 5420 nM and 4750 nM, respectively.

Regarding `O=C(O)COc1ccc(Cn2c(C3CC3)nc3ccc(C(c4ccc(Cl)cc4)c4ccc(Cl)cc4)cc32)cc1` [Example 176], the concentration giving a half-maximal response (EC50) in experiment [1] and in experiment [2] was over 10000 nM in each case.

As for `COc1ccc(Cn2c(C3CC3)nc3ccc(C(c4ccc(Cl)cc4)c4ccc(Cl)cc4)cc32)cc1` [Example 177], the half-maximal effective concentration (EC50) in experiment [1] was 96.7 nM; in experiment [2], 7900 nM.

Regarding `COCC(c1ccc(Cl)cc1)(c1ccc(Cl)cc1)c1ccc2nc(C3CC3)n(C3CCN(S(=O)(=O)c4ccc(C(=O)O)c(Cl)c4)CC3)c2c1` [Example 178], the results for the half-maximal effective concentration (EC50) in experiment [1] and in experiment [2] were 67.5 nM and over 10000 nM, respectively.

Take `COc1ccc(-n2c(C3CC3)nc3ccc(C(c4ccc(Cl)cc4)c4ccc(Cl)cc4)cc32)cc1` [Example 179]: the EC50 in experiment [1] is 1.7 nM; in experiment [2], over 10000 nM.

Turning to `Oc1cccc(-n2c(C3CC3)nc3ccc(C(c4ccc(Cl)cc4)c4ccc(Cl)cc4)cc32)c1` [Example 180], the half-maximal effective concentration (EC50) in experiment [1] was 17.1 nM; in experiment [2], over 10000 nM.

`COc1cccc(-n2c(C3CC3)nc3ccc(C(c4ccc(Cl)cc4)c4ccc(Cl)cc4)cc32)c1` [Example 181]: the EC50 in experiment [1] was 25 nM; in experiment [2] it was over 10000 nM.

`NC(=O)COc1ccc(Cn2c(C3CC3)nc3ccc(C(c4ccc(Cl)cc4)c4ccc(Cl)cc4)cc32)cc1` [Example 182]: the concentration for a half-maximal effect (EC50) in experiment [1] stood at 255 nM; in experiment [2], 2930 nM.

As to `Oc1ccc(Cn2c(C3CC3)nc3ccc(C(c4ccc(Cl)cc4)c4ccc(Cl)cc4)cc32)cc1` [Example 183], the EC50 in experiment [1] turned out to be 31.4 nM; in experiment [2] it was 6300 nM.

`NC(=O)c1ccc(S(=O)(=O)N2CCC(n3c(C4CC4)nc4ccc(C(c5ccc(Cl)cc5)c5ccc(Cl)cc5)cc43)CC2)cc1C(F)(F)F` [Example 184]: the values for the 50% effective concentration (EC50) in experiment [1] and in experiment [2] were 31.4 nM and over 10000 nM, respectively.

Take `CNC(=O)c1cccc(S(=O)(=O)N2CCC(n3c(C4CC4)nc4ccc(C(c5ccc(Cl)cc5)c5ccc(Cl)cc5)cc43)CC2)c1` [Example 186]: the 50% effective concentration (EC50) was 25.3 nM in experiment [1] and over 10000 nM in experiment [2].

Take `COc1ccc(S(=O)(=O)N2CCC(n3c(C4CC4)nc4ccc(C(c5ccc(Cl)cc5)c5ccc(Cl)cc5)cc43)CC2)cc1C(N)=O` [Example 187]: the 50% effective concentration (EC50) in experiment [1] was 51.8 nM; in experiment [2], over 10000 nM.

Regarding `Cc1ccc(S(=O)(=O)N2CCC(n3c(C4CC4)nc4ccc(C(c5ccc(Cl)cc5)c5ccc(Cl)cc5)cc43)CC2)cc1C(=O)O` [Example 188], the EC50 in experiment [1] is 160 nM; in experiment [2], over 10000 nM.

Consider `NC(=O)c1ccc(S(=O)(=O)N2CCC(n3c(C4CC4)nc4ccc(C(c5ccc(Cl)cc5)c5ccc(Cl)cc5)cc43)CC2)cc1F` [Example 189], for which the EC50 in experiment [1] is 29.5 nM; in experiment [2] it was over 10000 nM.

For the molecule `O=C(O)c1ccc(S(=O)(=O)N2CCC(n3c(C4CC4)nc4ccc(C(c5ccc(Cl)cc5)c5ccc(Cl)cc5)cc43)CC2)cc1F` [Example 190], the half-maximal effective concentration (EC50) in experiment [1] stood at 11.3 nM; in experiment [2], 699 nM.

Turning to `O=C(NCCCO)c1cccc(S(=O)(=O)N2CCC(n3c(C4CC4)nc4ccc(C(c5ccc(Cl)cc5)c5ccc(Cl)cc5)cc43)CC2)c1` [Example 191], the EC50 in experiment [1] is 21 nM; in experiment [2], over 10000 nM.

Consider `COc1cc(S(=O)(=O)N2CCC(n3c(C4CC4)nc4ccc(C(CO)(c5ccc(Cl)cc5)c5ccc(Cl)cc5)cc43)CC2)ccc1C(N)=O` [Example 192], for which the half-maximal effective concentration (EC50) was 5050 nM in experiment [1] and over 10000 nM in experiment [2].

Consider `COc1cc(S(=O)(=O)N2CCC(n3c(C4CC4)nc4ccc(C(CO)(c5ccc(Cl)cc5)c5ccc(Cl)cc5)cc43)CC2)ccc1C(=O)O` [Example 193], for which the EC50 in experiment [1] and in experiment [2] was over 10000 nM in each case.

Regarding `O=C(c1c[nH]nn1)N1CCC(n2c(C3CC3)nc3ccc(C(c4ccccc4)c4ccccc4)cc32)CC1` [Example 198], the 50% effective concentration (EC50) in experiment [1] was 4800 nM; in experiment [2] it was over 10000 nM.

In the case of `O=C(c1cn[nH]n1)N1CCC(n2c(C3CC3)nc3ccc(C(c4ccc(Cl)cc4)c4ccc(Cl)cc4)cc32)CC1` [Example 199], the EC50 came to 173 nM in experiment [1] and 6500 nM in experiment [2].

Regarding `O=C(c1nc[nH]n1)N1CCC(n2c(C3CC3)nc3ccc(C(c4ccccc4)c4ccccc4)cc32)CC1` [Example 200], the EC50 was 4720 nM in experiment [1] and 6310 nM in experiment [2].

(Values after patent US20190031618A1, “BENZIMIDAZOLE DERIVATIVES USEFUL AS CB-1 INVERSE AGONISTS” (Janssen Pharmaceutica NV, priority 2015, published 2019).)
